± gives the expanded uncertainty stated by the source.
Key:
[1] = Molar enthalpy of transition or fusion; conditions: Crystal; DSC
[2] = for viscosity / mass density: 101.33 kPa, Liquid; for viscosity: Falling or rolling sphere viscometry; for mass density: Vibrating tube method; for Normal melting temperature: visual observation

CCCCCCCC[n+]1cccc2ccccc21.O=S(=O)([N-]S(=O)(=O)C(F)(F)F)C(F)(F)F [1-octylquinolinium bis[(trifluoromethyl)sulfonyl]imide]
Conditions | Molar enthalpy of transition or fusion [kcal/mol]
[1] | 15 ± 0.406

[2]
Conditions | Normal melting temperature [°C] | mass density [kg/m3] | viscosity [mPa·s]
323.15 K | – | 1317.99 ± 6 | 98.46 ± 3.5
328.15 K | – | 1313.82 ± 6 | 77.27 ± 2.4
333.15 K | – | 1309.64 ± 5.9 | 61.75 ± 1.8
338.15 K | – | 1305.46 ± 5.9 | 50.06 ± 1.4
343.15 K | – | 1301.29 ± 5.8 | 41.15 ± 1.2
348.15 K | – | 1297.14 ± 5.8 | 34.22 ± 1
353.15 K | – | 1292.99 ± 5.8 | 28.87 ± 0.85
358.15 K | – | 1288.85 ± 5.7 | 24.7 ± 0.72
363.15 K | – | 1284.71 ± 5.7 | 21.19 ± 0.62
Crystal | 48.2 ± 1.1 | – | –

[2], DTA
Conditions | Glass transition temperature [°C] | Triple point temperature [K]
Crystal | – | 321.5 ± 0.5
Glass | -52.3 ± 10 | –

c1ccccc1 [benzene]
Conditions | Normal melting temperature [°C]
[2], Crystal | 5.5 ± 1.1

Reference: the NIST ThermoML archive (doi:10.1016/j.jct.2011.12.037)
